In patent US10231954B2, “Neurodegenerative therapies” (LYTIX BIOPHARMA AS, priority 2014, dated 2019):

What was measured:
Type in all cases: biochemical
MARK3 = MARK3 (Homo sapiens, UniProt P27448); assay: Kinase profiling MARK3; conditions: 100 micromolar inhibitor concentration, 100 is no change
Description: (§1) Any value less that 25 is considered to be highly significant inhibition.

p38g MAPK = biological target: T1, p38g MAPK (Homo sapiens, UniProt P53778); assay: Kinase profiling p38g MAPK; conditions: 100 micromolar inhibitor concentration, 100 is no change
T1 sequence (P53778 1-367): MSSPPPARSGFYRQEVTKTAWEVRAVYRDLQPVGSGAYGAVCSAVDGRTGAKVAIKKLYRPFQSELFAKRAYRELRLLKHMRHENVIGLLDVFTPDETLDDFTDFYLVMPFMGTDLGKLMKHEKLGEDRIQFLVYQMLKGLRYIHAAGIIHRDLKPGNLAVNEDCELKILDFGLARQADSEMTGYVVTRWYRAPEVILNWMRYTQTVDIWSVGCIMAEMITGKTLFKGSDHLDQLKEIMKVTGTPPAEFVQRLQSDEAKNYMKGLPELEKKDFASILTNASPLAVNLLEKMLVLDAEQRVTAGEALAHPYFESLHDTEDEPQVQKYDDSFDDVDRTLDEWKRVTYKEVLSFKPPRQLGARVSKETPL
Description: as §1

IRAK4 = biological target: T2, IRAK4 (Homo sapiens, UniProt Q9NWZ3); assay: Kinase profiling IRAK4; conditions: 100 micromolar inhibitor concentration, 100 is no change
T2 sequence (Q9NWZ3 1-460): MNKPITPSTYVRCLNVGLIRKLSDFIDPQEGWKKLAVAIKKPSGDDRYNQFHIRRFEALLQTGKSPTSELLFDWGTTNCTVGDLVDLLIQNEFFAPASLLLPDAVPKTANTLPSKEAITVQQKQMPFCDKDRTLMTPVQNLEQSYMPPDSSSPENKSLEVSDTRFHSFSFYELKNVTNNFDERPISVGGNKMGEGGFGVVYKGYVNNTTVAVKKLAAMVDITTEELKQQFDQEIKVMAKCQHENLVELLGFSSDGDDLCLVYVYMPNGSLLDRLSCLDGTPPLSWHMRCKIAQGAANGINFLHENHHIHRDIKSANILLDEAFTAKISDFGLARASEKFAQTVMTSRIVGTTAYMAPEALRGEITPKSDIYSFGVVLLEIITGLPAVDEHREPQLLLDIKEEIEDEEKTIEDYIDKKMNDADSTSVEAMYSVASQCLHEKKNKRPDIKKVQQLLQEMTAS
Description: as §1

DYRK1A = DYRK1A (Homo sapiens, UniProt Q13627); assay: DYRK 1A assay (kinase profiling); conditions: 100 micromolar inhibitor concentration, 100 is no change
Description: Assays are stopped by addition of 5 μl of 0.5 M (3%) orthophosphoric acid and then harvested onto P81 Unifilter plates with a wash buffer of 50 mM orthophosphoric acid.
as §1

TAK1 = biological target: T3, TAK1 (Homo sapiens, UniProt O43318); assay: Kinase profiling TAK1; conditions: 100 micromolar inhibitor concentration, 100 is no change
T3 sequence (O43318 1-303 limits assumed): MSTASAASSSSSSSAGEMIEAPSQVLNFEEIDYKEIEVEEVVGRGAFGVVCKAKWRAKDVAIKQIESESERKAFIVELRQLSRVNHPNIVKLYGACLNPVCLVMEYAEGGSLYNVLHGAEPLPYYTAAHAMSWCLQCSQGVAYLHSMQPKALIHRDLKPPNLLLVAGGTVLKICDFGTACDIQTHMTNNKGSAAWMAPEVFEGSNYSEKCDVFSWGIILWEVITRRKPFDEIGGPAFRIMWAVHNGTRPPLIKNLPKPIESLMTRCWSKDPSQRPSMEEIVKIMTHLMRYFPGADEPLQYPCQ
T3 sequence (Q15750 437-504 partner limits assumed): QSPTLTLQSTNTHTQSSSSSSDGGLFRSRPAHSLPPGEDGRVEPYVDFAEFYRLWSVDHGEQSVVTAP
Description: as §1

ERK1 = ERK1 (Homo sapiens, UniProt P27361); assay: Kinase profiling ERK1; conditions: 100 micromolar inhibitor concentration, 100 is no change
Description: as §1

PKBb = PKBb (Homo sapiens, UniProt P31751); assay: Kinase profiling PKBb; conditions: for residual kinase activity, PKBb: 100 micromolar inhibitor concentration, 100 is no change
Description: as §1

VEG-FR = assay: Kinase profiling VEG-FR; conditions: 100 micromolar inhibitor concentration; 100 is no change
Description: as §1

PRK2 = PRK2 (Homo sapiens, UniProt Q16513); assay: Kinase profiling PRK2; conditions: 100 micromolar inhibitor concentration, 100 is no change
Description: as §1

MST2 = biological target: T4, MST2 (Homo sapiens, UniProt Q13188); assay: Kinase profiling MST2; conditions: 100 micromolar inhibitor concentration, 100 is no change
T4 sequence (Q13188 1-491): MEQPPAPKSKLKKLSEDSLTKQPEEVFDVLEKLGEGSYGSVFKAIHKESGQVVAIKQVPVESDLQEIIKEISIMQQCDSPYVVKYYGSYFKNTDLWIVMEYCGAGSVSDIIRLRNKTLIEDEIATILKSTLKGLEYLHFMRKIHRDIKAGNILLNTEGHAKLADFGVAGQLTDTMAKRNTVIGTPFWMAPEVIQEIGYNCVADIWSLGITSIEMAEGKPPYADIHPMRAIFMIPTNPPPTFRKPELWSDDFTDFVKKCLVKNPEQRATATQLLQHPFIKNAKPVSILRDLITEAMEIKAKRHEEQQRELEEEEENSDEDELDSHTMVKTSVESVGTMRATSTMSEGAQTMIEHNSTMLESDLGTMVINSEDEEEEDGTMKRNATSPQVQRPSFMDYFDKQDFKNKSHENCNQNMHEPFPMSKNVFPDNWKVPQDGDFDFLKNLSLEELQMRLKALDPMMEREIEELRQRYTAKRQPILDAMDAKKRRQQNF
Description: as §1

HIPK2 = HIPK2 (Homo sapiens, UniProt Q9H2X6); assay: Kinase profiling HIPK2; conditions: 100 micromolar inhibitor concentration, 100 is no change
Sequence of HIPK2 (Q9H2X6 whole entry, species assumed): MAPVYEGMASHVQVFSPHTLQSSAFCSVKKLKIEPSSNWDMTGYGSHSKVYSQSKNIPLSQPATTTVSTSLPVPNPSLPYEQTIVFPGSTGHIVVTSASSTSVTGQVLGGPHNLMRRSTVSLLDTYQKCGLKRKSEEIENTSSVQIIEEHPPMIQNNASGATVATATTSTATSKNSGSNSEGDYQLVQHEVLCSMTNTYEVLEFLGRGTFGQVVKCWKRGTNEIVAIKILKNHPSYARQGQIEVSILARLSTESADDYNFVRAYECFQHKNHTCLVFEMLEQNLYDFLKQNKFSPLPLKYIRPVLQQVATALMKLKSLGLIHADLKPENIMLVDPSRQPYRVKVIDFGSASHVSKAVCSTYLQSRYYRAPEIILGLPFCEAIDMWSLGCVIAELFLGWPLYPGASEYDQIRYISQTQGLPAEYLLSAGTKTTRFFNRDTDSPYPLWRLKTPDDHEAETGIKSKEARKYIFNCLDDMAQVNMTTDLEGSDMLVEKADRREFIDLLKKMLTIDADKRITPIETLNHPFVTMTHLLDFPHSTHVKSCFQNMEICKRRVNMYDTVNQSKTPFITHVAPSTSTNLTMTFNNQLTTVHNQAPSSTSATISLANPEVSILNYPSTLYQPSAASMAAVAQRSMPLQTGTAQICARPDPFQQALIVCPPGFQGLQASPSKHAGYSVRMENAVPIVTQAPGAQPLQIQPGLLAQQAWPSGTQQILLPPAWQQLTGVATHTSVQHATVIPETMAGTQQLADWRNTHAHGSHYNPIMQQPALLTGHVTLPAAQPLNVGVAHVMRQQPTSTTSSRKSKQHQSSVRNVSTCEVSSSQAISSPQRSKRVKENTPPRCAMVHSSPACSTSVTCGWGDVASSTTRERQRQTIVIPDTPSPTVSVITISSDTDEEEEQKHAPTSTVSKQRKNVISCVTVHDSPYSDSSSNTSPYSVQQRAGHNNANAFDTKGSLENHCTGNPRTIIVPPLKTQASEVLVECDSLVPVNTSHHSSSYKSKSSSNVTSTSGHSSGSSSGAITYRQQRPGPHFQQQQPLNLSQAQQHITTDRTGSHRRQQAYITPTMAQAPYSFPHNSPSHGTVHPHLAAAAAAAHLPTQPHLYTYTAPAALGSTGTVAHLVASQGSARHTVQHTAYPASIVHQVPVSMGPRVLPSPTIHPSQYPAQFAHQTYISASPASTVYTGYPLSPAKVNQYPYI
Description: as §1

EPH-A2 = EPH-A2 (Homo sapiens, UniProt P29317); assay: Kinase profiling EPH-A2; conditions: 100 micromolar inhibitor concentration, 100 is no change
Sequence of EPH-A2 (P29317 24-976, species assumed): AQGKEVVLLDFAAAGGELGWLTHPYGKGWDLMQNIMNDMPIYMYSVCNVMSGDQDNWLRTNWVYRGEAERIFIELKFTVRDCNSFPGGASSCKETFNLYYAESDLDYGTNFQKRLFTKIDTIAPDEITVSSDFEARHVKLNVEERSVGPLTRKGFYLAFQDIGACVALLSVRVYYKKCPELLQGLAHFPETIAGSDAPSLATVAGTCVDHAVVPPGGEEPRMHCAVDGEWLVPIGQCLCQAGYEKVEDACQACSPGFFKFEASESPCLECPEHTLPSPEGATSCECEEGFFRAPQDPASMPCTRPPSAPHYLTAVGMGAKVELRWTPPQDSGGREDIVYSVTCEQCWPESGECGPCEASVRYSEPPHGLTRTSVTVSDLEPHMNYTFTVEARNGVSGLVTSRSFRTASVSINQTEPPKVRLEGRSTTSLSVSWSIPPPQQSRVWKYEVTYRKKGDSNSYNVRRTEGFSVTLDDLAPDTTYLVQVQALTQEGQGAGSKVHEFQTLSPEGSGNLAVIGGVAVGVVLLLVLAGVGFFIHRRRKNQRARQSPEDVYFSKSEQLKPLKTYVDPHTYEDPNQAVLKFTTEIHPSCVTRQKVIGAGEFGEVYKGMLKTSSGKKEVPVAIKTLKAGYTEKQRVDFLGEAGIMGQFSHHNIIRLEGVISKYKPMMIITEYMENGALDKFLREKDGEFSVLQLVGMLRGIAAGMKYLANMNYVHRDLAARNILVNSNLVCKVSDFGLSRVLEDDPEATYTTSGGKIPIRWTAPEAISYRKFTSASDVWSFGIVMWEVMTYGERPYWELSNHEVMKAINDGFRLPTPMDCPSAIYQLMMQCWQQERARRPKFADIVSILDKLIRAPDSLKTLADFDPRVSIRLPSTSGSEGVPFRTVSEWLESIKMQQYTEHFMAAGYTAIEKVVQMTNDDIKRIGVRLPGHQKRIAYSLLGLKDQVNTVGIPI
Description: as §1

RIPK2 = RIPK2 (Homo sapiens, UniProt O43353); assay: Kinase profiling RIPK2; conditions: 100 micromolar inhibitor concentration, 100 is no change
Sequence of RIPK2 (O43353 whole entry, species assumed): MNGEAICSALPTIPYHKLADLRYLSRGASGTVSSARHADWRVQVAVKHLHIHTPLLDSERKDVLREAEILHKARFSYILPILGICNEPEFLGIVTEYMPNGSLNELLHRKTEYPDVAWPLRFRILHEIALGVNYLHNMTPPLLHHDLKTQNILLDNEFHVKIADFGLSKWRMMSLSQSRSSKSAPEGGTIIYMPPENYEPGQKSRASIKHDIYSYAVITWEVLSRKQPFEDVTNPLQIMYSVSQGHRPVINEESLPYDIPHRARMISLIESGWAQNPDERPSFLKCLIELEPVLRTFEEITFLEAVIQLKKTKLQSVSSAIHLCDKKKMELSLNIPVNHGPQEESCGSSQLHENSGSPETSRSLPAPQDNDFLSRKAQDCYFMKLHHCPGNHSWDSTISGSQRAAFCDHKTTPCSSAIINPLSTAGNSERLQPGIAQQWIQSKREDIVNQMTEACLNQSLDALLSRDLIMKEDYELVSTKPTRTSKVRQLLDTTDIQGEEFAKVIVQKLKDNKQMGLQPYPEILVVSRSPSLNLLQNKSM
Description: as §1

PLK1 = PLK1 (Homo sapiens, UniProt P53350); assay: Kinase profiling PLK1; conditions: 100 micromolar inhibitor concentration, 100 is no change
Sequence of PLK1 (P53350 whole entry, species assumed): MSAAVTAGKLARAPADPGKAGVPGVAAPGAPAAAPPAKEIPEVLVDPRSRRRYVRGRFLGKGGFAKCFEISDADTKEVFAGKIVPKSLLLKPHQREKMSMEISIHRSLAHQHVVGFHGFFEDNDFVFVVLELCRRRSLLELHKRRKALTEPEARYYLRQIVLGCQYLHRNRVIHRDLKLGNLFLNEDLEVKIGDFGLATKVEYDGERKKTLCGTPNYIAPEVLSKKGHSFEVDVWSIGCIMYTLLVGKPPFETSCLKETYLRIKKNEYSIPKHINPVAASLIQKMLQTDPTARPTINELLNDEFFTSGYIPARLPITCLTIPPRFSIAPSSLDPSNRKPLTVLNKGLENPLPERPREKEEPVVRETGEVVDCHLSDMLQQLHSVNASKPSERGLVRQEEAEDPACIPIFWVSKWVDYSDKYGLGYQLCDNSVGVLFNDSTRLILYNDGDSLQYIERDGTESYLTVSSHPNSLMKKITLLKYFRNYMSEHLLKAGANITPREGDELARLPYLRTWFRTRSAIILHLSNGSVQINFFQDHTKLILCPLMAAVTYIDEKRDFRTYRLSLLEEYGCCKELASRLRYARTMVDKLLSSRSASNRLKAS
Description: as §1

SmMLCK = SmMLCK (Homo sapiens, UniProt Q15746); assay: Kinase profiling SmMLCK; conditions: 100 micromolar inhibitor concentration, 100 is no change
Sequence of SmMLCK (Q15746 923-1914): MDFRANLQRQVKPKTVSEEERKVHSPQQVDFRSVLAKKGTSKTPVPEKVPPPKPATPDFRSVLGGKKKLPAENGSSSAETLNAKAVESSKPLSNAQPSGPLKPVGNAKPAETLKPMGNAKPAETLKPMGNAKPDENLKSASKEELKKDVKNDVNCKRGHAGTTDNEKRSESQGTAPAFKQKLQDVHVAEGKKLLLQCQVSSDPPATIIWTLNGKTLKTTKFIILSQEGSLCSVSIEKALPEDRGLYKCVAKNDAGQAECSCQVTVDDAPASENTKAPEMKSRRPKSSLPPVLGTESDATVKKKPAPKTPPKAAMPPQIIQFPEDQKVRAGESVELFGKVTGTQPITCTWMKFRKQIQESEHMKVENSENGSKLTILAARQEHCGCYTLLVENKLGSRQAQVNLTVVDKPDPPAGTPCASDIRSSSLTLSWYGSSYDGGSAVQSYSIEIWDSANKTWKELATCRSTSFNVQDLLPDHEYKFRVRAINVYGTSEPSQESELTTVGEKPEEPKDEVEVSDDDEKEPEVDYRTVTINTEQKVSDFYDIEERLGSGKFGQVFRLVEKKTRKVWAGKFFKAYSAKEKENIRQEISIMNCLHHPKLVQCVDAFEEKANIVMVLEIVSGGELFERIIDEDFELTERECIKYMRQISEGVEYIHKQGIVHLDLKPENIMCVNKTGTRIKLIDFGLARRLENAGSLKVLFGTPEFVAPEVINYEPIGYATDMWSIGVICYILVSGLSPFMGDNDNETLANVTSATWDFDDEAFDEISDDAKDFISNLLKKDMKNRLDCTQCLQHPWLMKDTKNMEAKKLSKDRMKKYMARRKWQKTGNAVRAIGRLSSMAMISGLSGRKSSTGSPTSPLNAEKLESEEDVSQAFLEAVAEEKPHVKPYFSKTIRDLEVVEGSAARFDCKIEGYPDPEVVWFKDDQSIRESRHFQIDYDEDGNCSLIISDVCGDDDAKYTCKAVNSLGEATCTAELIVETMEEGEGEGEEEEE

PKCγ = PKCγ (Homo sapiens, UniProt P05129); assay: Kinase profiling PKCγ; conditions: 100 micromolar inhibitor concentration, 100 is no change
Description: as §1

CHK2 = CHK2 (Homo sapiens, UniProt O96017); assay: Kinase profiling CHK2; conditions: 100 micromolar inhibitor concentration, 100 is no change
Sequence of CHK2 (O96017 whole entry, species assumed): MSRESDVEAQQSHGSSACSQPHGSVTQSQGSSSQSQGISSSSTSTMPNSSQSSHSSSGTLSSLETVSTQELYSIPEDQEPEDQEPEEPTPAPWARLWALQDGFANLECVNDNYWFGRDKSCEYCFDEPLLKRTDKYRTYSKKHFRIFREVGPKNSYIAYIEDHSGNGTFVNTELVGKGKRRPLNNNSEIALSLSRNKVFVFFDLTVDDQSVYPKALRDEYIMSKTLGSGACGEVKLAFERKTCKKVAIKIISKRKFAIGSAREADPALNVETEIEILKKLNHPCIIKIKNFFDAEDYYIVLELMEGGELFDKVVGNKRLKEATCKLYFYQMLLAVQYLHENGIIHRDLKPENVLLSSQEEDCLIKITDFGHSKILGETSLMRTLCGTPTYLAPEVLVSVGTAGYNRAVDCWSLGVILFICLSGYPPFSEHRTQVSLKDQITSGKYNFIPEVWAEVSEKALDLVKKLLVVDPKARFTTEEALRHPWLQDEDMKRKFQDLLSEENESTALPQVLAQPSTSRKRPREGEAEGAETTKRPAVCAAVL
Description: as §1

SMILES | residual kinase activity, VEG-FR (VEG-FR) | residual kinase activity, MARK3 (MARK3) | residual kinase activity, p38g MAPK (p38g MAPK) | residual kinase activity, IRAK4 (IRAK4) | residual kinase activity, DYRK1A (DYRK1A) | residual kinase activity, TAK1 (TAK1) | residual kinase activity, ERK1 (ERK1) | residual kinase activity, PKBb (PKBb) | residual kinase activity, PRK2 (PRK2) | residual kinase activity, MST2 (MST2) | residual kinase activity, HIPK2 (HIPK2) | residual kinase activity, EPH-A2 (EPH-A2) | residual kinase activity, RIPK2 (RIPK2) | residual kinase activity, PLK1 (PLK1) | residual kinase activity, SmMLCK (SmMLCK) | residual kinase activity, PKCγ (PKCγ) | residual kinase activity, CHK2 (CHK2) | further results
CC(=O)Nc1nc2cc(F)ccc2s1 [Compound 03-77] | 48 | – | – | – | – | – | – | – | – | – | – | – | – | – | – | – | – | remaining activity at 100 µM (MARK3; read-out: residual kinase activity, MARK3): 58%; remaining activity at 100 µM (p38g MAPK; read-out: residual kinase activity, p38g MAPK): 77%; remaining activity at 100 µM (IRAK4; read-out: residual kinase activity, IRAK4): 43%; remaining activity at 100 µM (DYRK1A; read-out: residual kinase activity, DYRK1A): 7%; remaining activity at 100 µM (TAK1; read-out: residual kinase activity, TAK1): 46%; remaining activity at 100 µM (ERK1; read-out: residual kinase activity, ERK1): 90%; remaining activity at 100 µM (PKBb; read-out: residual kinase activity, PKBb): 93%; remaining activity at 100 µM (PRK2; read-out: residual kinase activity, PRK2): 74%; remaining activity at 100 µM (MST2; read-out: residual kinase activity, MST2): 80%; remaining activity at 100 µM (HIPK2; read-out: residual kinase activity, HIPK2): 22%; remaining activity at 100 µM (EPH-A2; read-out: residual kinase activity, EPH-A2): 106%; remaining activity at 100 µM (RIPK2; read-out: residual kinase activity, RIPK2): 64%; remaining activity at 100 µM (PLK1; read-out: residual kinase activity, PLK1): 78%; remaining activity at 100 µM (SmMLCK; read-out: residual kinase activity, SmMLCK): 66%; remaining activity at 100 µM (PKCγ; read-out: residual kinase activity, PKCγ): 102%; remaining activity at 100 µM (CHK2; read-out: residual kinase activity, CHK2): 63%
CC(=O)Nc1nc2cc(C)ccc2s1 [Compound 03-76] | 50 | 71 | 92 | 51 | 23 | 52 | 91 | 91 | 84 | 75 | 51 | 93 | 60 | 90 | 62 | 106 | 65 | –
O=C(Nc1nc2ccc(O)cc2s1)c1cccnc1 [Compound 08-44] | 21 | 65 | 77 | 32 | 8 | 18 | 81 | 45 | 46 | 57 | 19 | 81 | 21 | 63 | 19 | 73 | 16 | –
O=C(Nc1nc2ccc(O)cc2s1)c1ccccn1 [Compound 03-12] | 17 | 79 | 89 | 54 | 33 | 33 | 74 | 61 | 66 | 61 | 18 | 85 | 29 | 65 | 9 | 143 | 23 | –
CC(=O)Nc1nc2ccccc2s1 [Compound 03-32] | 66 | 85 | 109 | 65 | 43 | 76 | 83 | 112 | 81 | 88 | 51 | 111 | 70 | 62 | 81 | 94 | 87 | –
